Assays:
IR = IR phosphorylation, Western blot; type: cell-based, Chinese hamster; settings: CHO-IR cells, 20 or 40 μM, 15 min
Description: (§1) (A) Glucose transport was measured by determining [^3H]-2-deoxyglucose uptake stimulated by either insulin or α-PGG in 3T3-L1 cells in the presence or absence of HNMPA-(AM)3, an inhibitor of IR tyrosine kinase activity (24); wortmannin, an inhibitor of PI 3-kinase (25), or cytochalasin B, an inhibitor of GLUT4 (26), (n=4, mean±SD). (B) Cells were induced by 20 or 40 μM α-PGG or 100 nM insulin for 15 min. Cell lysates were separated by PAGE and analyzed for phosphorylation of IR (in CHO-IR cells) or Akt (in adipocytes) using antibodies specific to the target proteins. (C) Cells were treated with α-PGG and insulin in a fashion similar to (B) and assayed for their respective PI-3 kinase activity with a radioactive TLC method (27). (D) In similar experiments, intact cells were analyzed by confocal microscopy for translocation of GLUT4 using anti-GLUT4 antibodies.
(§2) Protein phosphorylation/activation and GLUT4 translocation. To investigate signal transduction induced by α-PGG, proteins from 3T3-L1 adipocytes or CHO-IR cells (23), which were treated with α-PGG or insulin for 15 min, were isolated, separated by PAGE, blotted on nylon membranes, and analyzed by Western blotting with antibodies against either IR or Akt. […]

GLUT4 = GLUT4 translocation, confocal microscopy; type: cell-based; settings: adipocytes, 37° C., 15 min
Description: as §1, §2

SMILES: O=C(OC[C@H]1O[C@H](OC(=O)c2cc(O)c(O)c(O)c2)[C@H](OC(=O)c2cc(O)c(O)c(O)c2)[C@@H](OC(=O)c2cc(O)c(O)c(O)c2)[C@@H]1OC(=O)c1cc(O)c(O)c(O)c1)c1cc(O)c(O)c(O)c1 [α-PGG, alpha 1,2,3,4,6-penta-O-galloyl-D-Glucopyranose]
- phosphorylation of the IR (IR): induces the phosphorylation of the IR
- GLUT4 translocation (GLUT4): translocated to the plasma membrane

Reference: patent US7888042B2, “Methods for identifying insulin mimetics” (Ohio University, priority 2005, dated 2011)
